According to ChEMBL document CHEMBL2346609, “Synthesis, characterization and Akt phosphorylation inhibitory activity of cyclopentanecarboxylate-substituted alkylphosphocholines” (Bioorg Med Chem, 2013):

Columns and labels:
[1] = target: RAC-alpha serine/threonine-protein kinase (Homo sapiens, UniProt P31749); test: Inhibition of Akt phosphorylation in human insulin-stimulated A549 cells incubated for 2 hrs prior to insulin-induction measured after 30 mins by ELISA; type: cell-based
[2] = Cytotoxicity against human KATO III cells by flow cytometric analysis; type: functional, cell-based, KATO III cell
MCF7 = test: Cytotoxicity against human MCF7 cells by flow cytometric analysis; type: functional, cell-based
A549 [3] = test: Cytotoxicity against human A549 cells by flow cytometric analysis; type: functional, cell-based
A549 [4] = test: Ratio of edelfosine IC50 to compound IC50 for human A549 cells; type: functional
A549 [5] = test: Ratio of perifosine IC50 to compound IC50 for human A549 cells; type: functional
A549 [6] = test: Ratio of miltefosine IC50 to compound IC50 for human A549 cells; type: functional

Sequence of RAC-alpha serine/threonine-protein kinase (P31749 whole entry): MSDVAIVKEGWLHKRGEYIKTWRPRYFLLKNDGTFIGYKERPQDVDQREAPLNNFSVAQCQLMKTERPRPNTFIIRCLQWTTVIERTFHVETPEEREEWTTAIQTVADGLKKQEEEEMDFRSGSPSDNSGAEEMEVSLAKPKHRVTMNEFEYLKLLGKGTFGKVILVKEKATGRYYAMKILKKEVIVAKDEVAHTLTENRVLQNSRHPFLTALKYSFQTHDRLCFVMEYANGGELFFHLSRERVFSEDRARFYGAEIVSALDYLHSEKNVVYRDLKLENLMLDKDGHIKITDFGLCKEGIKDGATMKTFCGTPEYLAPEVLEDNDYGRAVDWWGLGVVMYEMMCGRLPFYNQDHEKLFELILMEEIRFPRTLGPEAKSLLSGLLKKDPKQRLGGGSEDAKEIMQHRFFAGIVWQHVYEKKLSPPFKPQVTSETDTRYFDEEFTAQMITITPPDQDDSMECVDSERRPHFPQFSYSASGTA

| Structure (SMILES) | IC50 [1] [µM] | IC50 [2] [µM] | IC50 (MCF7) [µM] | IC50 (A549 [3]) [µM] | Ratio IC50 (A549 [4]) | Ratio IC50 (A549 [5]) | Ratio IC50 (A549 [6]) |
| --- | --- | --- | --- | --- | --- | --- | --- |
| CCCCCCCCCCCCCCCCCCOP(=O)([O-])OC1CC[N+](C)(C)CC1 [PERIFOSINE] | 5.3 |  |  |  |  |  |  |
| CCCCCCCCCCCCCCCCCCCCCC[C@@]1(C(=O)OCC)CCC[C@H]1OP(=O)([O-])OCC[N+](C)(C)C (racemic) | 5.5 | 10.4 | 16.8 | 6.9 |  |  |  |
| CCCCCCCCCCCCCCCCCCCCCC[C@@]1(C(=O)OCC)CCC[C@@H]1OP(=O)([O-])OCC[N+](C)(C)C (racemic) | 19.1 | 11.4 | 7.6 | 17.8 |  |  |  |
| CCCCCCCCCCCCCCCCCCCC[C@@]1(C(=O)OCC)CCC[C@H]1OP(=O)([O-])OCC[N+](C)(C)C (racemic) | 7 | 11.1 | 9.7 | 13.6 |  |  |  |
| CCCCCCCCCCCCCCCCOP(=O)([O-])OCC[N+](C)(C)C [MILTEFOSINE] | 9.6 |  |  |  |  |  |  |
| CCCCCCCCCCCCC[C@@]1(C(=O)OCC)CCC[C@@H]1OP(=O)([O-])OCC[N+](C)(C)C (racemic) | 6.2 | 9.7 | 4.5 | 2.7 |  |  |  |
| CCCCCCCCCCCCCCCCCCOCC(COP(=O)([O-])OCC[N+](C)(C)C)OC (configuration not stated) [EDELFOSINE] | 3.5 | 12.8 | 9.3 | 7.4 |  |  |  |
| CCCCCCCCCCCCCCCCCCCC[C@@]1(C(=O)OCC)CCC[C@@H]1OP(=O)([O-])OCC[N+](C)(C)C (racemic) | 6.9 | 10.9 | 16 | 7.2 |  |  |  |

Further lines, with some results ahead:

| IC50 [1] [µM] | Structure (SMILES) | IC50 [2] [µM] | IC50 (MCF7) [µM] | IC50 (A549 [3]) [µM] | Ratio IC50 (A549 [4]) | Ratio IC50 (A549 [5]) | Ratio IC50 (A549 [6]) |
| --- | --- | --- | --- | --- | --- | --- | --- |
| 5 | CCCCCCCCCCCCCCCC[C@@]1(C(=O)OCC)CCC[C@@H]1OP(=O)([O-])OCC[N+](C)(C)C (racemic) | 10.6 | 11.1 | 3.6 |  |  |  |
| 10.9 | CCCCCCCCCCCCCCCCCC[C@@]1(C(=O)OCC)CCC[C@H]1OP(=O)([O-])OCC[N+](C)(C)C (racemic) | 15 | 13.1 | 6.2 |  |  |  |
| 3 | CCCCCCCCCCCCCCCCCC[C@@]1(C(=O)OCC)CCC[C@@H]1OP(=O)([O-])OCC[N+](C)(C)C (racemic) | 9.9 | 7.5 | 4.6 |  |  |  |
| 3.1 | CCCCCCCCCCCCC[C@@]1(C(=O)OCC)CCC[C@H]1OP(=O)([O-])OCC[N+](C)(C)C (racemic) | 14.1 | 11.2 | 2 | 4 | 4 | 4 |
| 2 | CCCCCCCCCCCCCCCC[C@@]1(C(=O)OCC)CCC[C@H]1OP(=O)([O-])OCC[N+](C)(C)C (racemic) | 7.9 | 5.6 | 1.6 | 4 | 4 | 4 |
